In patent US20110275807A1, “Application of Evodiamine in preparing medicaments for Alzheimer's disease” (Institute of Laboratory Animal Science, Chinese Academy of …, priority 2010, published 2011):

Tests used:
Type in all cases: in vivo
[1] = test system: TNF-α; experiment: ELISA of TNF-α in brain tissues of Alzheimer's disease model mice; details: 100 mg/kg body weight/day in diet for 3 months, compared with the model group
Protocol: (§1) The evodiamine treatment group was administrated in the standard diet plus evodiamine in a dose of 100 mg/kg body weight/day for 3 months. The model group received a standard diet as the placebo control.

[2] = test system: APPswe/PSΔE9 transgenic model of Alzheimer's disease; experiment: Morris water-maze test in Alzheimer's disease mice model; details: 100 mg/kg body weight/day in diet for 3 months; compared with the model group
Protocol: The evodiamine treatment group was administrated in the standard diet plus evodiamine in a dose of 100 mg/kg body weight/day for 3 months. The model group received a standard diet as the placebo control. After a three-month continuous administration, the Morris water-maze tests were performed to test the effect of evodiamine on improvement of learning and memory abilities of the Alzheimer's disease mice model.

[3] = test system: IL-6; experiment: ELISA of IL-6 in brain tissues of Alzheimer's disease model mice; details: 100 mg/kg body weight/day in diet for 3 months, compared with the model group
Protocol: as §1

[4] = test system: cyclaoxygenase-2 (COX-2); experiment: Western Blotting of COX-2 expression in brain tissue of Alzheimer's disease model mice; details: 100 mg/kg body weight/day in diet for 3 months, compared with the model group
Protocol: as §1, with “control. […] The inflammation is one of main reasons resulting in the pathological development of Alzheimer's disease, so Evodiamine can treat Alzheimer's disease.” for “control.”

[5] = test system: IL-Iβ; experiment: ELISA of IL-Iβ in brain tissues of Alzheimer's disease model mice; details: 100 mg/kg body weight/day in diet for 3 months, compared with the model group
Protocol: as §1

Evodiamine
TNF-α in the brain tissues [1]: significantly decreased
learning and memory abilities (Morris water-maze) [2]: significantly improved
IL-6 in the brain tissues [3]: significantly decreased
expression of the cyclaoxygenase-2 (COX-2) in the brain tissue [4]: reduced
IL-Iβ in the brain tissues [5]: significantly decreased
